Results: patent US20060235076A1, “Medicinal composition for treating infection with drug-resistant staphylococcus aureus” (priority 2003, published 2006)

System: MRSA COL and MRSA Strain No. 5
Assay: Potentiating effect of various gallates for antibacterial activity of oxacillin (MIC by broth microdilution method and FIC)
Assay type: cell-based, Staphylococcus aureus
Details: for effect of the combination use with oxacillin by FIC values: COL Strain and Strain No. 5; for FIC value: combination with oxacillin
Experimental: According to the broth microdilution method defined by Japan Society of Chemotherapy, MIC was determined. CAMHA was prepared by adding 50 mg/l of Ca-ion, 25 mg/l of Mg-ion, and 2% of NaCl to MHB (Mueller-Hinton Broth), and it was used as a medium for use in the measurement of sensitivity. In 96-well microplates 100 μl of the medium for use in the measurement of sensitivity containing drugs was dispensed. The bacterial liquid was incubated at 37° C. overnight, diluted with saline and added to the plate so that the final concentration of the bacteria was 5×10^5 CFU/well. […] FIC (fractional inhibitory concentration) was calculated from the result and the potency of the effect of the combination use was evaluated.

## O=C(O[C@@H]1Cc2c(O)cc(O)cc2O[C@@H]1c1ccc(O)c(O)c1)c1cc(O)c(O)c(O)c1 [Epicatechin gallate, epicatechin gallate]
  effect of the combination use with oxacillin by FIC values: more potent effects of the combination use
MRSA COL
  FIC value: 0.127
MRSA Strain No. 5
  FIC value: 0.188

## catechin gallate
  effect of the combination use with oxacillin by FIC values: most potent
MRSA COL
  FIC value: <0.25
MRSA Strain No. 5
  FIC value: 0.064

## O=C(O[C@@H]1Cc2c(O)cc(O)cc2O[C@H]1c1cc(O)c(O)c(O)c1)c1cc(O)c(O)c(O)c1 [Gallocatechin gallate, gallocatechin gallate]
  effect of the combination use with oxacillin by FIC values: more potent effects of the combination use
MRSA COL
  FIC value: 0.281
MRSA Strain No. 5
  FIC value: 0.188
